# Measured values taken from ChEMBL document CHEMBL4825668, “Discovery of Novel Pyrimidine-Based Capsid Assembly Modulators as Potent Anti-HBV Agents” (J Med Chem, 2021).
# Active and inactive are the calls of the source. No cut-off for these calls is given here.
# Columns and labels:
# Hepatitis B virus [1] = test: Antiviral activity against Human hepatitis B virus in Huh-7 cells assessed as reduction in intracellular viral DNA level incubated for 36 hrs by qPCR analysis; type: functional, organism-based; settings: Huh-7, 36 h
# [2] = Metabolic stability in human liver microsomes assessed as compound remaining at […] incubated for 30 mins by LC/MS/MS analysis; type: ADME, Microsome; settings: read-out: Stabilty
# [3] = Toxicity in BALB/c mouse assessed as changes in blood up to 400 mg/kg, po for 2 weeks; type: organism-based; settings: in vivo, 336 h
# CYP3A4 = CYP3A4 (Homo sapiens, UniProt P08684); test: Inhibition of human recombinant CYP3A4 using ketoconazole […] at 10 uM by fluorometric assay; type: ADME
# [4] = Metabolic stability in rat liver microsomes assessed as compound remaining at […] incubated for 30 mins by LC/MS/MS analysis; type: ADME, Microsome; settings: read-out: Stabilty
# CYP2C9 = CYP2C9 (Homo sapiens, UniProt P11712); test: Inhibition of human recombinant CYP2C9 using sulfaphenazole […] at 10 uM by fluorometric assay; type: ADME
# hERG (KCNH2) = hERG (KCNH2) (Homo sapiens, UniProt Q12809); test: Inhibition of human ERG at 40 uM incubated for 2 to 3 hrs by ligand binding assay
# [5] = Toxicity in BALB/c mouse assessed as changes in urine up to 400 mg/kg, po for 2 weeks; type: organism-based; settings: in vivo, 336 h
# CYP1A2 = biological target: T1, CYP1A2 (Homo sapiens, UniProt P05177); test: Inhibition of human recombinant CYP1A2 using alpha-naphthoflavone […] at 10 uM by fluorometric assay; type: ADME
# T1 sequence (P05177 whole entry): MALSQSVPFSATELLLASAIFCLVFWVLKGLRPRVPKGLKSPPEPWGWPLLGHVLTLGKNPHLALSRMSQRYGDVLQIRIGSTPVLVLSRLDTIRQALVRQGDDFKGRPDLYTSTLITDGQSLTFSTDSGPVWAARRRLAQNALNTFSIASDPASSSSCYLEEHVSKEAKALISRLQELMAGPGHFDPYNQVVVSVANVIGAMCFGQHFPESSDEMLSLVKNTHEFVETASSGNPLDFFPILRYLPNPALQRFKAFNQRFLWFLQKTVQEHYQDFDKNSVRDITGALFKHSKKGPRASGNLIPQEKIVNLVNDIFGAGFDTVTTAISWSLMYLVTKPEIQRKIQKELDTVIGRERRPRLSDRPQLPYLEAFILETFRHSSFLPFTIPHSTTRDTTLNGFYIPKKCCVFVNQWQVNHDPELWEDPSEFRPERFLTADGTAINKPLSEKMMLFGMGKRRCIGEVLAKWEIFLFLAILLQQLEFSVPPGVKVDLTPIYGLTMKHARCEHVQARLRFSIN
# CYP2D6 = CYP2D6 (Homo sapiens, UniProt P10635); test: Inhibition of human recombinant CYP2D6 using quinidine […] at 10 uM by fluorometric assay; type: ADME
# [6] = biological target: Voltage-gated inwardly rectifying potassium channel KCNH2 (Homo sapiens, UniProt Q12809); test: Inhibition of human ERG expressed in HEK cells at -80 mV holding potential by patch clamp assay relative to control; type: cell-based
# [7] = Mutagenicity in Salmonella typhimurium in presence of S9 fraction by Ames test; type: toxicity, subcellular; settings: salmonella enterica subsp. enterica serovar typhimurium
# [8] = Metabolic stability in mouse liver microsomes assessed as compound remaining at […] incubated for 30 mins by LC/MS/MS analysis; type: ADME, Microsome; settings: read-out: Stabilty
# CYP2C19 = CYP2C19 (Homo sapiens, UniProt P33261); test: Inhibition of human recombinant CYP2C19 using amitriptyline […] at 10 uM by fluorometric assay; type: ADME
# [9] = Permeability of the compound at pH 7.4 by PAMPA; type: ADME
# [10] = Half life in ICR mouse at 5 mg/kg, iv measured after 1440 mins by HPLC analysis; type: ADME, organism-based; settings: in vivo
# [11] = AUClast in ICR mouse at 5 mg/kg, iv measured after 1440 mins by HPLC analysis; type: ADME, organism-based; parameters: route intravenous, dose 5 mg/kg, time 1440 min; settings: in vivo
# [12] = Cmax in ICR mouse at 5 mg/kg, iv measured after 1440 mins by HPLC analysis; type: ADME, organism-based; parameters: route intravenous, dose 5 mg/kg, time 1440 min; settings: in vivo
# [13] = AUClast in ICR mouse at 10 mg/kg, po measured after 1440 mins by HPLC analysis; type: ADME, organism-based; parameters: route oral, time 1440 min, dose 10 mg/kg; settings: in vivo
# [14] = Clearance in ICR mouse at 5 mg/kg, iv measured after 1440 mins by HPLC analysis; type: ADME, organism-based; settings: in vivo
# [15] = Volume of distribution at steady state in ICR mouse at 5 mg/kg, iv measured after 1440 mins by HPLC analysis; type: ADME, organism-based; settings: in vivo, read-out: Vdss
# [16] = Cmax in ICR mouse at 10 mg/kg, po measured after 1440 mins by HPLC analysis; type: ADME, organism-based; parameters: route oral, dose 10 mg/kg, time 1440 min; settings: in vivo
# [17] = Tmax in ICR mouse at 10 mg/kg, po measured after 1440 mins by HPLC analysis; type: ADME, organism-based; settings: in vivo
# [18] = AUC(infinity) in ICR mouse at 5 mg/kg, iv measured after 1440 mins by HPLC analysis; type: ADME, organism-based; parameters: route intravenous, time 1440 min, dose 5 mg/kg; settings: in vivo
# [19] = Oral bioavailability in ICR mouse at 10 mg/kg measured after 1440 mins by HPLC analysis; type: ADME, organism-based; settings: in vivo
# [20] = Half life in ICR mouse at 10 mg/kg, po measured after 1440 mins by HPLC analysis; type: ADME, organism-based; settings: in vivo
# [21] = AUC(infinity) in ICR mouse at 10 mg/kg, po measured after 1440 mins by HPLC analysis; type: ADME, organism-based; parameters: route oral, dose 10 mg/kg, time 1440 min; settings: in vivo
# [22] = Half life in ICR mouse at 10 mg/kg, iv measured after 1440 mins by HPLC analysis; type: ADME, organism-based; settings: in vivo
# [23] = AUClast in ICR mouse at 10 mg/kg, iv measured after 1440 mins by HPLC analysis; type: ADME, organism-based; parameters: route intravenous, dose 10 mg/kg, time 1440 min; settings: in vivo
# [24] = AUC(infinity) in ICR mouse at 10 mg/kg, iv measured after 1440 mins by HPLC analysis; type: ADME, organism-based; parameters: route intravenous, time 1440 min, dose 10 mg/kg; settings: in vivo
# [25] = Volume of distribution at steady state in ICR mouse at 10 mg/kg, iv measured after 1440 mins by HPLC analysis; type: ADME, organism-based; settings: in vivo, read-out: Vdss
# [26] = Clearance in ICR mouse at 10 mg/kg, iv measured after 1440 mins by HPLC analysis; type: ADME, organism-based; settings: in vivo
# Hepatitis B virus [27] = test: Antiviral activity against Human hepatitis B virus in Huh-7 cells assessed as reduction in HBsAg level by ELISA; type: functional, organism-based
# Hepatitis B virus [28] = test: Antiviral activity against Human hepatitis B virus in Huh-7 cells assessed as decrease in intracellular viral DNA accumulation incubated for 36 hrs by qPCR analysis; type: functional, organism-based
# Hepatitis B virus [29] = test: Antiviral activity against Human hepatitis B virus infected in humanized liver uPA SCID mouse model assessed as change in serum HBeAg at 40 mg/kg, po daily measured every week by ELISA; type: functional, organism-based
# Huh-7 [30] = test: Inhibition of HBV recombinant Cp149 expressed in Huh-7 cells assessed as inhibition of secretion of particles containing viral DNA at 1 uM incubated for 1 hr by immunoblot analysis; type: cell-based; settings: Hepatitis B virus
# Hepatitis B virus [31] = test: Antiviral activity against Human hepatitis B virus infected in humanized liver uPA SCID mouse model assessed as decrease in serum viral DNA at 40 mg/kg, po daily measured every week by qPCR analysis; type: functional, organism-based
# Hepatitis B virus [32] = test: Antiviral activity against Human hepatitis B virus infected in humanized liver uPA SCID mouse model assessed as change in serum HBsAg at 40 mg/kg, po daily measured every week by ELISA; type: functional, organism-based
# Hepatitis B virus [33] = test: Antiviral activity against Human hepatitis B virus infected in hydrodynamic injection C57BL/6 mouse model assessed as reduction in serum HBsAg up to 120 mg/kg, po daily by ELISA; type: functional, organism-based; settings: dose mg/kg <=120
# Huh-7 [34] = test: Inhibition of HBV recombinant Cp149 expressed in Huh-7 cells assessed as assembled HBV core protein fraction at 1 uM incubated for 1 hr by sucrose gradient analysis; type: cell-based; settings: Hepatitis B virus
# Hepatitis B virus [35] = test: Inhibition of HBV recombinant Cp149 expressed in Escherichia coli BL21 (DE3) assessed as inhibition of capsid assembly at 0.1 uM incubated for 1 hr by immune blotting analysis relative to control
# Hepatitis B virus [36] = test: Antiviral activity against Human hepatitis B virus infected in hydrodynamic injection C57BL/6 mouse model assessed as reduction in viral DNA in serum up to 120 mg/kg, po daily measured after 5 days by qPCR analysis; type: functional, organism-based; settings: dose mg/kg <=120, time 5.0 day
# Hepatitis B virus [37] = test: Inhibition of HBV recombinant Cp149 expressed in Escherichia coli BL21 (DE3) assessed as inhibition of capsid assembly at 1 uM incubated for 1 hr by immune blotting analysis relative to control
# Hepatitis B virus [38] = test: Antiviral activity against Human hepatitis B virus in Huh-7 cells assessed as decrease in viral DNA level incubated for 36 hrs by qPCR analysis; type: functional, organism-based
# Hepatitis B virus [39] = test: Antiviral activity against Human hepatitis B virus infected in humanized liver uPA SCID mouse model assessed as reduction in HBV core protein at 40 mg/kg, po daily measured after 35 days by immunohistochemical analysis; type: functional, organism-based; settings: time 35.0 day
# Chain of CYP3A4 (P08684 whole entry): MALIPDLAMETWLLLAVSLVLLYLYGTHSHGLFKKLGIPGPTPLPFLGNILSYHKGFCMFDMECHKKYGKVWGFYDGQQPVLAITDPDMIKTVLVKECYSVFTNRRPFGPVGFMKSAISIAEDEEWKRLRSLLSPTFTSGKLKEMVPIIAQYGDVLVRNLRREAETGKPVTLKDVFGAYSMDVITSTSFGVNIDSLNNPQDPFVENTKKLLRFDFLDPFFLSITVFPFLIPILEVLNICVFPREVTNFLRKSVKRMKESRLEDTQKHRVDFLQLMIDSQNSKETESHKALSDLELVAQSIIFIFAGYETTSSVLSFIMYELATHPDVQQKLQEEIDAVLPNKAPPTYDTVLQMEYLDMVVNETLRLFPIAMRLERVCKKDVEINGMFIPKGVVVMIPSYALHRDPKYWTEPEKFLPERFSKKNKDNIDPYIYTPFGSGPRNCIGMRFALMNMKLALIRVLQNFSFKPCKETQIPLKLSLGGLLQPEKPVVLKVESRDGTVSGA
# Chain of CYP2D6 (P10635 whole entry): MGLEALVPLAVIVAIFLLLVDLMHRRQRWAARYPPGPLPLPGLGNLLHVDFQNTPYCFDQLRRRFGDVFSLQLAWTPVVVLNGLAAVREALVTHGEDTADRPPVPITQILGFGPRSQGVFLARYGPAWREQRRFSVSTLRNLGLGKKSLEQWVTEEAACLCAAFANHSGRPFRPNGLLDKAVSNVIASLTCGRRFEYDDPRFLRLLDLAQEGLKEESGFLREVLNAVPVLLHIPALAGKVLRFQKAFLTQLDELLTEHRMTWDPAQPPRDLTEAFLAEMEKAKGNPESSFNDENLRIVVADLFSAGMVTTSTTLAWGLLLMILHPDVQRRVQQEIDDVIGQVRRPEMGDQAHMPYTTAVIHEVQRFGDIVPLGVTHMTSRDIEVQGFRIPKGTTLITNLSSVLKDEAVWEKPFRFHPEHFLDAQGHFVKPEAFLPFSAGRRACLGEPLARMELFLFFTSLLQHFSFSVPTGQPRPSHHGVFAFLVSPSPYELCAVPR
# Chain of hERG (KCNH2) (Q12809 whole entry): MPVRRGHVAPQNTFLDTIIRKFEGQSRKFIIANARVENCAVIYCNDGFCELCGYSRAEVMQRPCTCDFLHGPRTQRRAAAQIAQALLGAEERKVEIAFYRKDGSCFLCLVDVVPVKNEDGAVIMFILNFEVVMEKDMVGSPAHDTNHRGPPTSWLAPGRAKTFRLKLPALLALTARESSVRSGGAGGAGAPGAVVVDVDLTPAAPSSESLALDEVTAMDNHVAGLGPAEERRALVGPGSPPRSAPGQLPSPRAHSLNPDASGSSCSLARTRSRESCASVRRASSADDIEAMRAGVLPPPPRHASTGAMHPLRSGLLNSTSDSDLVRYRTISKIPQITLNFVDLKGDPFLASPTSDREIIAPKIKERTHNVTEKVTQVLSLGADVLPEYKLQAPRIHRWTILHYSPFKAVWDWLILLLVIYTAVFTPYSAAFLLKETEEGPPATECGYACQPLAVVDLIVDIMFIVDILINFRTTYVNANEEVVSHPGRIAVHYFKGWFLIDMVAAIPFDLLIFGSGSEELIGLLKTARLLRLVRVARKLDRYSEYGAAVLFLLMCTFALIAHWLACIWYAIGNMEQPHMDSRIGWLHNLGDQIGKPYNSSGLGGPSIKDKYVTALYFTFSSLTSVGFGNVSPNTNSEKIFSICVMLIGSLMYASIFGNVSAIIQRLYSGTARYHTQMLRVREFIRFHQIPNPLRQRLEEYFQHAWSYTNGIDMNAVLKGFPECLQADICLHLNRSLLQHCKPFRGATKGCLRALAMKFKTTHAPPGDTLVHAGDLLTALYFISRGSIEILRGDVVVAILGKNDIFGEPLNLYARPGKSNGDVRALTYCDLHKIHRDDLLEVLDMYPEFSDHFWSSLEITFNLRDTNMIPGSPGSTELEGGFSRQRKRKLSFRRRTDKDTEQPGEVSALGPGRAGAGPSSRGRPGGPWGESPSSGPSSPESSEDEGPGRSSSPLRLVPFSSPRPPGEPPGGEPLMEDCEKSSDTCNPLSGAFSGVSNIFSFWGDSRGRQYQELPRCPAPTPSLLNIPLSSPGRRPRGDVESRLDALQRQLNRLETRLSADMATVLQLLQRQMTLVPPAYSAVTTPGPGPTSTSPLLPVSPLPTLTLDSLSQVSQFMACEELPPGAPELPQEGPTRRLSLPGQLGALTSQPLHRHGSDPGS
# Chain of CYP2C9 (P11712 whole entry): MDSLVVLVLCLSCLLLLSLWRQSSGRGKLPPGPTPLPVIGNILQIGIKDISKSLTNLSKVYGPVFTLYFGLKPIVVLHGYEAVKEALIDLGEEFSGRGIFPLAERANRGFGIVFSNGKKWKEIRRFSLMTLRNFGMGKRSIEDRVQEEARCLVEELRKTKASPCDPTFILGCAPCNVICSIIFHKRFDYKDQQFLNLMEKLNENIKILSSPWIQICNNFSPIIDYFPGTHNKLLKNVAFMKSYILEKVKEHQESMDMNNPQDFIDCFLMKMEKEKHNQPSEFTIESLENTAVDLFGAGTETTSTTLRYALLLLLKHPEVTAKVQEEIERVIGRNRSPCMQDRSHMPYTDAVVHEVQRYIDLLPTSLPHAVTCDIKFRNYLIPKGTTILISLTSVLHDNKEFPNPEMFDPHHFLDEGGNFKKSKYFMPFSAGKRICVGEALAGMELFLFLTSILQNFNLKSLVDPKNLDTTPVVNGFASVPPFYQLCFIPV
# Chain of CYP2C19 (P33261 whole entry): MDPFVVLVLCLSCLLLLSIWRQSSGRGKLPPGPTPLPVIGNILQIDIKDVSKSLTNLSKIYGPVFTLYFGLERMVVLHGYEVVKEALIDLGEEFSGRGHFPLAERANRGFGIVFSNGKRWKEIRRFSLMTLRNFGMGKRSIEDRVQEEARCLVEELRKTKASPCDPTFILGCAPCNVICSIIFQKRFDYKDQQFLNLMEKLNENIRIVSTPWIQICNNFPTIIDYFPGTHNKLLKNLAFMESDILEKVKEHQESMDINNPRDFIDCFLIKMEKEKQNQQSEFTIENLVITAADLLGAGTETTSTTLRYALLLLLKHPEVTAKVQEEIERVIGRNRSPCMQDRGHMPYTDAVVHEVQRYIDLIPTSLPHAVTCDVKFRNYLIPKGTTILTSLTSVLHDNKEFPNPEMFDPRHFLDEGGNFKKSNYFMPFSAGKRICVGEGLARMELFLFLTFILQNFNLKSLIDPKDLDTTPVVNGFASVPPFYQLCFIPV
# Chain of Voltage-gated inwardly rectifying potassium channel KCNH2 (Q12809 whole entry): as the sequence (Q12809 whole entry) above
smiles,measurement,setting,value
CS(=O)(=O)c1nc(Nc2ccc(F)c(Cl)c2)cc(NC2CCC(N)CC2)n1 (stereo not drawn) [listing 1 of 2 here],IC50,Hepatitis B virus [1],181 nM
same,remaining at 0.5 h,[2],81.7%
same,Activity,[3],Non-Toxic
same,inhibition at 10 µM,CYP3A4,44%
same,remaining at 0.5 h,[4],82%
same,inhibition at 10 µM,CYP2C9,51.8%
same,inhibition at 40 µM,hERG (KCNH2),76.6%
same,Activity,[5],Non-Toxic
same,inhibition at 10 µM,CYP1A2,37.2%
same,inhibition at 10 µM,CYP2D6,21.7%
same,IC50,[6],19800 nM
same,Activity,[7],Non-Toxic
same,remaining at 0.5 h,[8],79.6%
same,inhibition at 10 µM,CYP2C19,71.4%
same,log(permeability),[9],-5.15
CS(=O)(=O)c1nc(Nc2ccc(F)c(Cl)c2)cc(NC2CCC(N)CC2)n1.Cl (stereo not drawn),half-life,[10],4.8 h
same,AUC(0-t) at 24 h,[11],2110 ng·h/mL
same,Cmax,[12],9780 ng/mL
same,AUC(0-t) at 24 h,[13],203 ng·h/mL
same,clearance,[14],36.7 mL/min/kg
same,Vd,[15],5.4 L/kg
same,Cmax,[16],28.3 ng/mL
same,Tmax,[17],1.8 h
same,AUC(0-inf),[18],2410 ng·h/mL
same,bioavailability,[19],4.8%
same,half-life,[20],6.3 h
same,AUC(0-inf),[21],270 ng·h/mL
CS(=O)(=O)c1nc(Nc2ccc(F)c(Cl)c2)cc(N2CCNCC2)n1.Cl,half-life,[22],3.3 h
same,AUC(0-t) at 24 h,[23],2370 ng·h/mL
same,AUC(0-inf),[24],2330 ng·h/mL
same,AUC(0-t) at 24 h,[13],131 ng·h/mL
same,Vd,[25],10.9 L/kg
same,Cmax,[16],25 ng/mL
same,Tmax,[17],0.5 h
same,clearance,[26],70.8 mL/min/kg
same,bioavailability,[19],4.6%
same,half-life,[20],7.8 h
same,AUC(0-inf),[21],107 ng·h/mL
CS(=O)(=O)c1nc(Nc2ccc(F)c(Cl)c2)cc(NC2CCC(N)CC2)n1 (stereo not drawn) [listing 2 of 2 here],Activity,Hepatitis B virus [27],inactive
same,Activity,Hepatitis B virus [28],Active
same,Activity,Hepatitis B virus [29],Active
same,inhibition,Huh-7 [30],Active
same,Activity,Hepatitis B virus [31],Active
same,Activity,Hepatitis B virus [32],Active
same,Activity,Hepatitis B virus [33],Active
same,inhibition,Huh-7 [34],Active
same,inhibition,Hepatitis B virus [35],52%
same,Activity,Hepatitis B virus [36],Dose-Dependent Effect
same,inhibition,Hepatitis B virus [37],99%
same,Activity,Hepatitis B virus [38],Active
same,Activity,Hepatitis B virus [39],Active
CS(=O)(=O)c1nc(Nc2ccc(F)c(Cl)c2)cc(N2CCNCC2)n1,IC50,Hepatitis B virus [1],189 nM
same,remaining at 0.5 h,[2],> 99%
same,inhibition at 10 µM,CYP3A4,60.2%
same,remaining at 0.5 h,[4],> 99%
same,inhibition at 10 µM,CYP2C9,64.8%
same,inhibition at 40 µM,hERG (KCNH2),14%
same,inhibition at 10 µM,CYP1A2,57.4%
same,inhibition at 10 µM,CYP2D6,45.2%
same,Activity,[7],Non-Toxic
same,remaining at 0.5 h,[8],> 99%
same,inhibition at 10 µM,CYP2C19,41.2%
same,log(permeability),[9],-5.37
